In paper PMC7651859, “Identification of 6-amino-1H-pyrazolo[3,4-d]pyrimidines with in vivo efficacy against visceral leishmaniasis” (RSC Medicinal Chemistry, 2020):
Values after ≈ are worked out from the molar mass of the structure shown. Like-named read-outs stand apart in the source and are kept apart here.

Legend:
THP-1 cells = experiment: THP-1 host cell toxicity readout of the Ld InMac assay; assay type: cell-based; settings: Homo sapiens; host THP-1 cells; mean of n ≥ 3; read-out: THP-1 pEC50 (converted)
From the text: (§1) For the identification of DDD853651/GSK3186899, which contained a trans-1,4-cyclohexyldiamine, a key strategy was to optimise the balance between potency in the intracellular Leishmania assay (L. donovani in THP-1 cells, referred to as Ld InMac assay[9]) and solubility.[10] In that case, we focused on 2 (Table 1), where the sulfonamide was required for potency but was poorly soluble. […] To this end, we examined a 4-aminopiperidine central unit with both sulfonamide and amide substituents (Table 1). […] We therefore selected 4 as a suitable start-point for further chemistry. […] We noted that either lengthening the linker to the aromatic ring, or removing it, led to a loss of activity (6 and 7 respectively).
(§2) Intramacrophage Leishmania donovani Assay

[1] = Stability in mouse liver microsomes (intrinsic clearance); assay type: in vitro ADME; settings: mouse liver microsomal intrinsic clearance, 0.5 μM
Procedure: Stability in Microsomes 10
Test compound (0.5 μM) was incubated with female CD1 mouse (Xenotech) liver microsomes and their action started with addition of excess NADPH (8 mg/mL 50 mM potassium phosphate buffer, pH 7.4). Immediately, at time zero, then at 3, 6, 9, 15, and 30 min, an aliquot (50 μL) of the incubation mixture was removed and mixed with acetonitrile (100 μL) to stop the reaction.
Internal standard was added to all samples, the samples centrifuged to sediment precipitated protein, and the plates then sealed prior to UPLC-MS/MS analysis using a Xevo TQs micro (Waters Corporation, USA). XLfit (IDBS, UK) was used to calculate the exponential decay and consequently the rate constant (k) from the ratio of the peak area of test compound to internal standard at each time point. The rate of intrinsic clearance (Cl i) of each test compound was then calculated using the equation Cl i (mL/min/g liver) = k × V × microsomal protein yield, where V (mL/mg protein) is the incubation volume/mg protein added and […]
microsomal protein yield is taken as 52.5 mg protein/g liver. Verapamil (0.5 μM) was used as a positive control to confirm acceptable assay performance. […]

FaSSIF solubility = assay type: physicochemical; settings: fasted state simulated intestinal fluid (FaSSIF)
[2] = CAD kinetic aqueous solubility; assay type: physicochemical; settings: pH 7.4, pH7.4 phosphate buffered saline
Procedure: CAD Aqueous Solubility 11
5µl of 10mM DMSO stock solution is diluted to 100 µ l with pH7.4 phosphate buffered saline,
equilibrated for 1 hour at room temperature and filtered through Millipore MultiscreenHTS-PCF

L. donovani amastigotes = experiment: Ld InMac intramacrophage Leishmania donovani assay; assay type: cell-based; settings: for EC50: Leishmania donovani, L. donovani amastigotes in THP-1 cells, mean of n ≥ 3, read-out: Ld InMac pEC50 (converted)
From the text: as §1, §2

[3] = Aqueous solubility, values marked with ref 12; assay type: physicochemical; settings: values marked [12] in the table (method of ref 12, not CAD)
L. donovani = experiment: Mouse efficacy model of VL; assay type: in vivo; settings: for % Suppression of parasite load: liver load
Procedure: page 37: microsomal protein yield is taken as 52.5 mg protein/g liver. Verapamil (0.5 μM) was used as a positive control to confirm acceptable assay performance. In Vivo Efficacy Studies 10 Groups of female BALB/c mice (5 per group) were inoculated intravenously with approximately […] L. donovani amastigotes (LV9; WHO designation: MHOM/ET/67/HU3) harvested from the spleen of an infected hamster. From day 7 post infection, groups of mice were treated with either drug vehicle only (orally), with control drugs Miltefosine 30 mg/kg orally and Pentostam 15 mg/kg subcutaneously (only in compound 48 efficacy experiment) or with test compound at the appropriate dose. Miltefosine and Pentostam were dosed once daily for 5 days and test compounds were dosed twice daily for 5 days. Drug dosing solutions were prepared fresh each day and the vehicle was deionized water for Miltefosine and Pentostam, or 0.5% HPMC, 0.4% Tween 80, and 0.5% benzyl alcohol for test compounds. On day 14 all animals were humanely euthanized, liver smears made, and parasite burdens determined by counting the number of amastigotes/500 liver cells. Parasite burden is expressed in Leishman−Donovan units (LDU): the number of amastigotes per 500 nucleated cells multiplied by the organ weight in milligrams. S-37

p38α MAPK = p38α MAPK (Homo sapiens, UniProt Q16539); experiment: Human kinase panel, p38α MAPK; assay type: biochemical; settings: panel of 140 human kinases
From the text: (§3) From this, only 4 kinases were inhibited at >40% (ERK8 [extracellular signal-regulated kinases], p38α and p38β MAPK [mitogen-activated protein kinases] and CDK2 [cyclin dependant kinase]).

[4] = Oral pharmacokinetics in Balb-c mice; assay type: in vivo; settings: mouse, blood, female Balb-c mice, 100 mg kg^–1
From the text: On this basis, 48 and 50 were progressed into orally dosed pharmacokinetic studies in female Balb-c mice (Table 6), with both having sufficient Cmax (the highest concentration of a drug in the blood) and AUC (area under the curve) to progress into the previously reported mouse efficacy model of VL.[10]

[5] = Rat dose-escalation PK study; assay type: in vivo
CDK2 = CDK2 (Homo sapiens, UniProt P24941); experiment: Human kinase panel, CDK2; assay type: biochemical; settings: panel of 140 human kinases
From the text: as §3

ERK8 = target: T1, ERK8 (Homo sapiens, UniProt Q8TD08); experiment: Human kinase panel and IC50, ERK8; assay type: biochemical
T1 sequence (Q8TD08 1-544): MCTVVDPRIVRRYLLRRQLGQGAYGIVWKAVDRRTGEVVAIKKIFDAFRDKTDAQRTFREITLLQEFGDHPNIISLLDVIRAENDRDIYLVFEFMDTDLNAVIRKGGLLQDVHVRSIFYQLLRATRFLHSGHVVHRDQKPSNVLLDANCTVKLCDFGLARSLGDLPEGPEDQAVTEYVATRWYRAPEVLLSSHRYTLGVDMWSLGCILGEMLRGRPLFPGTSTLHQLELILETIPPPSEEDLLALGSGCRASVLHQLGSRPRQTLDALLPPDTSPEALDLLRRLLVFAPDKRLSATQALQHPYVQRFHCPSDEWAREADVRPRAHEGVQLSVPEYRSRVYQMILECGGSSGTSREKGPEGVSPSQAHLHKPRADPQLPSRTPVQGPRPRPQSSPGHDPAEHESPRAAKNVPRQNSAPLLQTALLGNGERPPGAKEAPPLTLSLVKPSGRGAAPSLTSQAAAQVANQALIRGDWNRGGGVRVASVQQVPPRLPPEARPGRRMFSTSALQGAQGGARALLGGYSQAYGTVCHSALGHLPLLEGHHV
From the text: as §3

p38β MAPK = p38β MAPK (Homo sapiens, UniProt Q15759); experiment: Human kinase panel and IC50, p38β MAPK; assay type: biochemical
From the text: as §3

[6] = dose increased from 100 to 300 mg kg^–1
[7] = 10 μM, panel of 140 human kinases

Sequence of p38β MAPK (Q15759 whole entry): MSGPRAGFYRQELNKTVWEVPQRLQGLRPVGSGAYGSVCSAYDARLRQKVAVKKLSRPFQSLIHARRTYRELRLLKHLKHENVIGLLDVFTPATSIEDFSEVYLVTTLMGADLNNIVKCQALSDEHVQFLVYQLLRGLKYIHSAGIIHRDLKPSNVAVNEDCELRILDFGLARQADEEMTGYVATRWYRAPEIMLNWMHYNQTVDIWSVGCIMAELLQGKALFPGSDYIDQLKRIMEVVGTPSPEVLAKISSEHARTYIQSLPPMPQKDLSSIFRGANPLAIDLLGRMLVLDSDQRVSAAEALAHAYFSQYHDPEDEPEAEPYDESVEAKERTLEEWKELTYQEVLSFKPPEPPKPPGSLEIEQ
Sequence of p38α MAPK (Q16539 whole entry): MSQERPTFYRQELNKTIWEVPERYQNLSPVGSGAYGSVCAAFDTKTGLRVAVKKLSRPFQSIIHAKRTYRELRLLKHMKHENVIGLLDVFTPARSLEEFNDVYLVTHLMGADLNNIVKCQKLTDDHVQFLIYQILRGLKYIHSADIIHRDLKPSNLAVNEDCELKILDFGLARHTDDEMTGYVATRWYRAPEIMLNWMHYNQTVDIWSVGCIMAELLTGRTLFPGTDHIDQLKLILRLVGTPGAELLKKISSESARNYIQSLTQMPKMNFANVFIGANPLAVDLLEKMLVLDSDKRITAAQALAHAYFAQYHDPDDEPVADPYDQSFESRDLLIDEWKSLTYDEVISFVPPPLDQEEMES

SMILES: COc1ccccc1-c1n[nH]c2nc(NC3CCN(C(=O)CC4CC4)CC3)ncc12 [Compound 42]
- EC50 (THP-1 cells): 39.8 µM
- Cli mouse [1]: 1.6 ml min^–1 g^–1
- solubility (FaSSIF solubility): < 1 µg/mL
- solubility at 1 h [2]: 22 µM (≈ 8.94 µg/mL)
- EC50 (L. donovani amastigotes): 0.316 µM

SMILES: COc1ccccc1-c1n[nH]c2nc(NC3CCN(c4ccc(Cl)nn4)CC3)ncc12 [Compound 41]
- EC50 (THP-1 cells): > 50.1 µM
- Cli mouse [1]: 3.4 ml min^–1 g^–1
- solubility [3]: 4 µM (≈ 1.75 µg/mL)
- EC50 (L. donovani amastigotes): 0.158 µM

SMILES: O=C(Cc1ccc(F)c(F)c1)N1CCC(Nc2ncc3c(N4CCOCC4)n[nH]c3n2)CC1 [Compound 48]
- EC50 (THP-1 cells): > 50.1 µM
- % Suppression of parasite load (L. donovani; 30 mg kg^–1 b.i.d. for 5 days PO): 60%
- % Suppression of parasite load (L. donovani; 100 mg kg^–1 b.i.d. for 5 days PO): 98%
- minimum efficacious dose (L. donovani; mouse model of VL): 100 mg kg^–1
- Cli mouse [1]: 1.6 ml min^–1 g^–1
- inhibition at 10 µM (p38α MAPK): > 40%
- solubility (FaSSIF solubility): 97 µg/mL (≈ 212 µM)
- solubility at 1 h [2]: ≥ 465 µM
- AUC [4]: 20900 ng·h/mL
- Cmax [4]: 5760 ng/mL
- Tmax [4]: 1 h
- Cmax ([5]; blood, 10 mg kg^–1): 229 ng/mL
- Tmax ([5]; blood, 10 mg kg^–1): 0.67 h
- AUC(0-t) ([5]; blood, 10 mg kg^–1, read-out: AUC (0-Tlast)): 488 ng·h/mL
- Cmax ([5]; blood, 100 mg kg^–1): 5520 ng/mL
- Tmax ([5]; blood, 100 mg kg^–1): 6 h
- AUC(0-t) ([5]; blood, 100 mg kg^–1, read-out: AUC (0-Tlast)): 50600 ng·h/mL
- Cmax ([5]; blood, 300 mg kg^–1): 6760 ng/mL
- Tmax ([5]; blood, 300 mg kg^–1): 6.67 h
- increase in AUC(0-Tlast) [5, 6]: 1.7 fold
- increase in Cmax [5, 6]: 1.2 fold
- AUC(0-t) ([5]; in vivo, 300 mg kg^–1, read-out: AUC (0-Tlast)): 84600 ng·h/mL
- inhibition at 10 µM (CDK2): > 40%
- inhibition at 10 µM (ERK8; [7]): > 40%
- IC50 (ERK8; full IC50 curve): 0.11 µM
- inhibition at 10 µM (p38β MAPK; [7]): > 40%
- IC50 (p38β MAPK; full IC50 curve): 0.55 µM
- EC50 (L. donovani amastigotes): 0.794 µM

SMILES: Clc1ccc(N2CCC(Nc3ncc4c(N5CCOCC5)n[nH]c4n3)CC2)nn1 [Compound 50]
- EC50 (THP-1 cells): > 50.1 µM
- % Suppression of parasite load (L. donovani; 25 mg kg^–1 b.i.d. for 5 days PO): 17%
- % Suppression of parasite load (L. donovani; 50 mg kg^–1 b.i.d. for 5 days PO): 57%
- Cli mouse [1]: 0.6 ml min^–1 g^–1
- solubility (FaSSIF solubility): 88 µg/mL (≈ 212 µM)
- AUC [4]: 39800 ng·h/mL
- Cmax [4]: 5230 ng/mL
- Tmax [4]: 4 h
- solubility ([3]; aqueous solution): 121 µM (≈ 50.3 µg/mL)
- EC50 (L. donovani amastigotes): 0.631 µM

SMILES: COc1ccccc1-c1n[nH]c2nc(NC3CCN(C(=O)Cc4ccc(F)cc4F)CC3)ncc12 [Compound 20]
- EC50 (THP-1 cells): 39.8 µM
- Cli mouse [1]: 5.0 ml min^–1 g^–1
- solubility (FaSSIF solubility): < 1 µg/mL
- solubility at 1 h [2]: < 1 µM
- EC50 (L. donovani amastigotes): 0.0794 µM

SMILES: Clc1ccc(N2CCC(Nc3ncc4c(C5CCOCC5)n[nH]c4n3)CC2)nn1 [Compound 49]
- EC50 (THP-1 cells): > 50.1 µM
- solubility ([3]; aqueous solution): 63 µM (≈ 26.1 µg/mL)
- EC50 (L. donovani amastigotes): 1.58 µM

SMILES: O=C(Cc1ccc(F)cc1F)N1CCC(Nc2ncc3c(N4CCOCC4)n[nH]c3n2)CC1 [Compound 15]
- EC50 (THP-1 cells): > 50.1 µM
- Cli mouse [1]: 2 ml min^–1 g^–1
- solubility at 1 h [2]: 14 µM (≈ 6.4 µg/mL)
- EC50 (L. donovani amastigotes): 0.794 µM

SMILES: CC(C)Cc1n[nH]c2nc(NC3CCN(C(=O)Cc4ccc(F)cc4F)CC3)ncc12 [Compound 8]
- EC50 (THP-1 cells): > 50.1 µM
- Cli mouse [1]: 12 ml min^–1 g^–1
- solubility at 1 h [2]: 26 µM (≈ 11.1 µg/mL)
- EC50 (L. donovani amastigotes): 1.58 µM

SMILES: CC(C)Cc1n[nH]c2nc(NC3CCN(C(=O)Cc4ccccc4)CC3)ncc12 [Compound 4]
- EC50 (THP-1 cells): > 50.1 µM
- Cli mouse [1]: 18 ml min^–1 g^–1
- solubility at 1 h [2]: 59 µM (≈ 23.2 µg/mL)
- more active than comparator compound (L. donovani amastigotes; Ld InMac, 4 versus 3): > 10 fold
- EC50 (L. donovani amastigotes): 7.94 µM

SMILES: CC(C)Cc1n[nH]c2nc(NC3CCN(S(=O)(=O)Cc4ccccc4)CC3)ncc12 [Compound 5]
- EC50 (THP-1 cells): > 50.1 µM
- Cli mouse [1]: >50 ml min^–1 g^–1
- solubility at 1 h [2]: 10 µM (≈ 4.29 µg/mL)
- loss of potency (less active) versus comparator compound (L. donovani amastigotes; Ld InMac, versus matched comparator): > 10 fold
- EC50 (L. donovani amastigotes): 12.6 µM

SMILES: O=C(Cc1ccc(F)cc1F)N1CCC(Nc2ncc3c(-c4ccccc4)n[nH]c3n2)CC1 [Compound 17]
- EC50 (THP-1 cells): > 50.1 µM
- Cli mouse [1]: 7.2 ml min^–1 g^–1
- solubility at 1 h [2]: < 1 µM
- EC50 (L. donovani amastigotes): 0.316 µM

SMILES: O=C(Cc1ccc(F)c(F)c1)N1CCC(Nc2ncc3c(C4CCOCC4)n[nH]c3n2)CC1 [Compound 47]
- EC50 (THP-1 cells): > 50.1 µM
- Cli mouse [1]: 3.1 ml min^–1 g^–1
- solubility at 1 h [2]: ≥ 429 µM
- EC50 (L. donovani amastigotes): 1 µM

SMILES: CC(C)(C)Cc1n[nH]c2nc(NC3CCN(C(=O)Cc4ccc(F)cc4F)CC3)ncc12 [Compound 11]
- EC50 (THP-1 cells): > 50.1 µM
- Cli mouse [1]: 22.0 ml min^–1 g^–1
- solubility at 1 h [2]: 27 µM (≈ 11.9 µg/mL)
- EC50 (L. donovani amastigotes): > 50.1 µM

SMILES: COc1ccccc1-c1n[nH]c2nc(NC3CCN(C(=O)N4CCOCC4)CC3)ncc12 [Compound 40]
- EC50 (THP-1 cells): > 50.1 µM
- Cli mouse [1]: 2 ml min^–1 g^–1
- solubility at 1 h [2]: 79 µM (≈ 34.6 µg/mL)
- EC50 (L. donovani amastigotes): 2 µM
